Experimental data reported in patent US11028090B2 (Dong Wha Pharm. Co., Ltd., priority 2017, dated 2021).
Like-named read-outs stand apart in the source and are kept apart here.

How the values were obtained:
[1] = biological target: BRD4 (BD1+BD2) bromodomain (Homo sapiens (Human), UniProt O60885); test: BRD4 binding inhibition (AlphaScreen, GST-BRD4 vs tetraacetylated histone H4 peptide)
How it was run: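 AlphaScreen read after 30 min dark incubation at room temperature with glutathione acceptor/streptavidin donor beads (10 μg/ml each). The beads were added to compound plus 100 nM biotin-H4 (K5,8,12,16-acetyl) peptide and 100 nM GST-BRD4 BD1+BD2 in pH 7.4 HEPES/Tween/BSA/DTT buffer.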

[2] = system: acute myelogenous leukemia cells (MV-4-11 cells); test: Cytotoxicity to acute myelogenous leukemia cells (MV-4-11 cells), CCK-8; conditions: Homo sapiens, MV4-11, 72 h
Experimental: The following experiment was performed to evaluate the cytotoxicity of [1,2,4]triazolo[4,3-a]quinoxaline derivative according to the present invention to acute myelogenous leukemia cells (MV-4-11 cells).
Acute myelogenous leukemia cells (MV-4-11 cells) were distributed in a 96 well plate at the density of 5×10^3 cells/well. The plated cells were treated with the compounds of the present invention dissolved in DMSO at the different concentrations ranging from 0.01 μM to 10 μM. 72 hours later, the activities of the compounds were determined using CCK-8 reagent.

[3] = GST-BRD4 (BD1+BD2) / biotinylated acetyl-histone H4 (Lys5,8,12,16) peptide, read-out: IC50, BRD4 binding inhibition
[4] = GST-BRD4 (BD1+BD2) vs biotinylated acetyl-histone H4 peptide, AlphaScreen, read-out: BRD4 IC50
[5] = read-out: IC50, cytotoxicity against acute myelogenous leukemia cells
[6] = read-out: MV-4-11 Cytotoxicity IC50

Compound | IC50 [1, 3] [nM] | IC50 [1, 4] [nM] | IC50 [2, 5] [nM] | IC50 [2, 6] [nM]
Cc1nnc2c(NCCCCNC(=O)CCC(C)C)nc3cc(-c4nc5ccccc5n4C)ccc3n12 [Example 236, 4-methyl-pentanoic acid-{4-[1-methyl-7-(1-methyl-1H-benzoimidazole-2-yl)-[1,2,4]triazolo[4,3-a]quinoxaline-4-ylamino]-butyl}-amide] | ≤ 10 | 2 | ≤ 200 | 87
COc1ccccc1C(=O)NCCCCNc1nc2cc(-c3nc4ccccc4n3C)ccc2n2c(C)nnc12 [Example 237, 2-methoxy-N-{4-[1-methyl-7-(1-methyl-1H-benzoimidazole-2-yl)-[1,2,4]triazolo[4,3-a]quinoxaline-4-ylamino]-butyl}-benzamide] | ≤ 10 | 0.6 | – | 500
Cc1nnc2c(NCCCCNC(=O)NC(C)C)nc3cc(-c4nc5ccccc5n4C)ccc3n12 [Example 238, 1-isopropyl-3-{4-[1-methyl-7-(1-methyl-1H-benzoimidazole-2-yl)-[1,2,4]triazolo[4,3-a]quinoxaline-4-ylamino]-butyl}-urea] | ≤ 50 | 15 | – | 650
Cc1nnc2c(NCCCCNC(=O)NC3CCCCC3)nc3cc(-c4nc5ccccc5n4C)ccc3n12 [Example 239, 1-cyclohexyl-3-{4-[1-methyl-7-(1-methyl-1H-benzoimidazole-2-yl)-[1,2,4]triazolo[4,3-a]quinoxaline-4-ylamino]-butyl}-urea] | ≤ 50 | 18 | – | 660
CCCn1c(-c2ccc3c(c2)nc(NCCCCNC(=O)CC(C)C)c2nnc(C)n23)nc2ccccc21 [Example 240, 3-methyl-N-{4-[1-methyl-7-(1-propyl-1H-benzoimidazole-2-yl)-[1,2,4]triazolo[4,3-a]quinoxaline-4-ylamino]-butyl}-butyramide] | ≤ 10 | 0.9 | ≤ 200 | 158
Cc1nnc2c(NCCCCNC(=O)CC(C)C)nc3cc([N+](=O)[O-])ccc3n12 [Example 244] | – | 89 | – | 260
Cc1nnc2c(NCCCCNC(=O)CC(C)C)nc3cc(N)ccc3n12 [Example 245, N-[4-(7-amino-1-methyl-[1,2,4]triazolo[4,3-a]quinoxaline-4-ylamino)-butyl]-3-methyl-butyramide] | ≤ 50 | 32 | – | 361
CCCNc1ccc2c(c1)nc(NCCCCNC(=O)CC(C)C)c1nnc(C)n12 [Example 253, 3-methyl-N-[4-(1-methyl-7-propylamino-[1,2,4]triazolo[4,3-a]quinoxaline-4-ylamino)-butyl]-butyramide] | ≤ 50 | 50 | – | 235
Cc1nnc2c(NCCCCNC(=O)CC(C)C)nc3cc(NCCCC#N)ccc3n12 [Example 254, N-{4-[7-(3-cyano-propylamino)-1-methyl-[1,2,4]triazolo[4,3-a]quinoxaline-4-ylamino]-butyl}-3-methyl-butyramide] | ≤ 10 | 7 | ≤ 200 | 101
Cc1nnc2c(NCCCCNC(=O)CC(C)C)nc3cc(NS(C)(=O)=O)ccc3n12 [Example 257, N-[4-(7-methanesulfonylamino-1-methyl-[1,2,4]triazolo[4,3-a]quinoxaline-4-ylamino)-butyl]-3-methyl-butyramide] | ≤ 10 | 8 | – | 327
Cc1nnc2c(NCCCCNC(=O)CC(C)C)nc3cc(NS(=O)(=O)CC(F)(F)F)ccc3n12 [Example 258] | ≤ 50 | 49 | – | 345
Cc1nnc2c(NCCCCNC(=O)CC(C)(C)C)nc3ccc(OC(F)(F)F)cc3n12 [Example 266, 3,3-dimethyl-N-[4-(1-methyl-8-trifluoromethoxy-[1,2,4]triazolo[4,3-a]quinoxaline-4-ylamino)-butyl]-butyramide] | ≤ 50 | 43 | – | 540
Cc1nnc2c(NCCCCNC(=O)c3ccccc3)nc3ccc(OC(F)(F)F)cc3n12 [Example 267, N-[4-(1-methyl-8-trifluoromethoxy-[1,2,4]triazolo[4,3-a]quinoxaline-4-ylamino)-butyl]-benzamide] | ≤ 50 | 39 | – | 570
Cc1nnc2c(NCCCCNC(=O)c3ccccc3Cl)nc3ccc(OC(F)(F)F)cc3n12 [Example 268, 2-chloro-N-[4-(1-methyl-8-trifluoromethoxy-[1,2,4]triazolo[4,3-a]quinoxaline-4-ylamino)-butyl]-benzamide] | ≤ 50 | 35 | – | 500
Cc1nnc2c(NCCCCNC(=O)CC(C)(C)C)nc3cc(OC(F)(F)F)ccc3n12 [Example 272, 3,3-dimethyl-N-[4-(1-methyl-7-trifluoromethoxy-[1,2,4]triazolo[4,3-a]quinoxaline-4-ylamino)-butyl]-butyramide] | ≤ 50 | 25 | – | 810
Cc1nnc2c(NCCCCNC(=O)c3ccccc3)nc3cc(OC(F)(F)F)ccc3n12 [Example 273, N-[4-(1-methyl-7-trifluoromethoxy-[1,2,4]triazolo[4,3-a]quinoxaline-4-ylamino)-butyl]-benzamide] | ≤ 50 | 49 | – | 510
Cc1nnc2c(NCCCCNC(=O)c3ccccc3Cl)nc3cc(OC(F)(F)F)ccc3n12 [Example 274, 2-chloro-N-[4-(1-methyl-7-trifluoromethoxy-[1,2,4]triazolo[4,3-a]quinoxaline-4-ylamino)-butyl]-benzamide] | ≤ 50 | 27 | – | 280
COc1ccc2c(c1)nc(NCCCCNC(=O)OC(C)(C)C)c1nnc(C)n12 [Example 275, [4-(7-methoxy-1-methyl-[1,2,4]triazolo[4,3-a]quinoxaline-4-ylamino)-butyl]-carbamic acid-tert-butylester] | ≤ 50 | 38 | – | 330
CCC(C)OC(=O)NCCCCNc1nc2cc(OC)ccc2n2c(C)nnc12 (stereo not shown) [Example 280, [4-(7-methoxy-1-methyl-[1,2,4]triazolo[4,3-a]quinoxaline-4-ylamino)-butyl]-carbamic acid-sec-butylester] | ≤ 50 | 14 | ≤ 200 | 40
COc1ccc2c(c1)nc(NCCCCNC(=O)C(C)C)c1nnc(C)n12 [Example 281, N-[4-(7-methoxy-1-methyl-[1,2,4]triazolo[4,3-a]quinoxaline-4-ylamino)-butyl]-isobutyramide] | ≤ 10 | 0.4 | ≤ 200 | 158
C/C=C/C(=O)NCCCCNc1nc2cc(OC)ccc2n2c(C)nnc12 [Example 283, butene-2-oic acid-[4-(7-methoxy-1-methyl-[1,2,4]triazolo[4,3-a]quinoxaline-4-ylamino)-butyl]-amide] | – | 51 | – | 176
COc1ccc2c(c1)nc(NCCCCNC(=O)C=C(C)C)c1nnc(C)n12 [Example 284, 3-methyl-butene-2-oic acid-[4-(7-methoxy-1-methyl-[1,2,4]triazolo[4,3-a]quinoxaline-4-ylamino)-butyl]-amide] | ≤ 10 | 9 | ≤ 200 | 173
COc1ccc2c(c1)nc(NCCCCNC(=O)[C@@H](F)C(C)C)c1nnc(C)n12 [Example 286, 2-(S)-fluoro-N-[4-(7-methoxy-1-methyl-[1,2,4]triazolo[4,3-a]quinoxaline-4-ylamino)-butyl]-3-methyl-butyramide] | ≤ 50 | 30 | ≤ 200 | 26
COc1ccc2c(c1)nc(NCCCCNC(=O)CC(C)(C)C)c1nnc(C)n12 [Example 287, N-[4-(7-methoxy-1-methyl-[1,2,4]triazolo[4,3-a]quinoxaline-4-ylamino)-butyl]-3,3-dimethyl-butyramide] | – | 67 | ≤ 200 | 125
COc1ccc2c(c1)nc(NCCCCNC(=O)CCC(C)C)c1nnc(C)n12 [Example 288, 4-methyl-pentanoic acid-[4-(7-methoxy-1-methyl-[1,2,4]triazolo[4,3-a]quinoxaline-4-ylamino)-butyl]-amide] | ≤ 50 | 15 | ≤ 200 | 34
CCC(C)CC(=O)NCCCCNc1nc2cc(OC)ccc2n2c(C)nnc12 (stereo not shown) [Example 289, 3-methyl-pentanoic acid-[4-(7-methoxy-1-methyl-[1,2,4]triazolo[4,3-a]quinoxaline-4-ylamino)-butyl]-amide] | ≤ 50 | 12 | ≤ 200 | 26
CCC(CC)C(=O)NCCCCNc1nc2cc(OC)ccc2n2c(C)nnc12 [Example 290, 2-ethyl-N-[4-(7-methoxy-1-methyl-[1,2,4]triazolo[4,3-a]quinoxaline-4-ylamino)-butyl]-butyramide] | ≤ 50 | 23 | ≤ 200 | 150
CCC(C)C(=O)NCCCCNc1nc2cc(OC)ccc2n2c(C)nnc12 (stereo not shown) [Example 291, N-[4-(7-methoxy-1-methyl-[1,2,4]triazolo[4,3-a]quinoxaline-4-ylamino)-butyl]-2-methyl-butyramide] | – | 97 | – | 290
